# Assay results reported in PubChem BioAssay AID1963867 (Molecular Pharmacology Branch, DTP, NCI, 2024).
# Tested on: KRAS-mutant PDC tumor spheroid with HUVEC/MSC, viability
# Test: Anticancer human tumor 327498-153-R-J2-PDC patient-derived uterine carcinosarcoma cell line growth inhibition [KRAS2]
# Settings: for viability, T/C: stronger effect = lower value
# How it was run: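 KRAS-mutant tumor cells were grown as spheroids with HUVEC endothelial cells and human MSCs as stroma. Targeted agents were tested alone and with KRAS pathway inhibitors. Doses started at or near clinical Cmax, or 10 microM, descending half-log.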
# [1] = curve of first compound, second compound 0.1 µM
# [2] = curve of first compound, second compound 0.316 µM
# [3] = curve of first compound, second compound 1 µM
# [4] = curve of first compound, second compound 3.16 µM
# [5] = curve of first compound, second compound 10 µM
# [6] = second compound 0.1 µM, first compound 0.0316 µM
# [7] = second compound 0.1 µM, first compound 0.1 µM
# [8] = second compound 0.1 µM, first compound 0.316 µM
# [9] = second compound 0.1 µM, first compound 1 µM
# [10] = second compound 0.1 µM, first compound 3.16 µM
# [11] = second compound 0.1 µM, first compound 10 µM
# [12] = second compound 0.316 µM, first compound 0.0316 µM
# [13] = second compound 0.316 µM, first compound 0.1 µM
# [14] = second compound 0.316 µM, first compound 0.316 µM
# [15] = second compound 0.316 µM, first compound 1 µM
# [16] = second compound 0.316 µM, first compound 3.16 µM
# [17] = second compound 0.316 µM, first compound 10 µM
# [18] = second compound 1 µM, first compound 0.0316 µM
# [19] = second compound 1 µM, first compound 0.1 µM
# [20] = second compound 1 µM, first compound 0.316 µM
# [21] = second compound 1 µM, first compound 1 µM
# [22] = second compound 1 µM, first compound 3.16 µM
# [23] = second compound 1 µM, first compound 10 µM
# [24] = second compound 3.16 µM, first compound 0.0316 µM
# [25] = second compound 3.16 µM, first compound 0.1 µM
# [26] = second compound 3.16 µM, first compound 0.316 µM
# [27] = second compound 3.16 µM, first compound 1 µM
# [28] = second compound 3.16 µM, first compound 3.16 µM
# [29] = second compound 3.16 µM, first compound 10 µM
# [30] = second compound 10 µM, first compound 0.0316 µM
# [31] = second compound 10 µM, first compound 0.1 µM
# [32] = second compound 10 µM, first compound 0.316 µM
# [33] = second compound 10 µM, first compound 1 µM
# [34] = second compound 10 µM, first compound 3.16 µM
# [35] = second compound 10 µM, first compound 10 µM
# 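Also: spheroids exposed to agents for seven days before reading.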
# 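For viability, T/C in this document: 100% = DMSO vehicle wells so lower means fewer viable cells.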
SMILES,IC50 [1] [nM],IC50 [2] [nM],IC50 [3] [nM],IC50 [4] [nM],"viability, T/C [6] [%]","viability, T/C [7] [%]","viability, T/C [8] [%]","viability, T/C [9] [%]","viability, T/C [12] [%]","viability, T/C [13] [%]","viability, T/C [14] [%]","viability, T/C [15] [%]","viability, T/C [18] [%]","viability, T/C [19] [%]","viability, T/C [20] [%]","viability, T/C [21] [%]","viability, T/C [24] [%]","viability, T/C [25] [%]","viability, T/C [26] [%]","viability, T/C [27] [%]",further results
CCNC(=O)CC1N=C(c2ccc(Cl)cc2)c2cc(OC)ccc2-n2c(C)nnc21 (stereo not given) + CNCc1ccccc1-c1csc(C(C)Nc2nc(C)nc3cc(OC)c(OC)cc23)c1,1390,478,382,< 31.6,88,76.8,59,55.8,69.5,69.6,53.4,41,77.6,64,52.6,40.3,1.88,1.54,0.18,1.98,"IC50 [5]: < 31.6 nM; viability, T/C [10]: 43.4%; viability, T/C [11]: 34%; viability, T/C [16]: 36.3%; viability, T/C [17]: 29.8%; viability, T/C [22]: 33.1%; viability, T/C [23]: 28%; viability, T/C [28]: 0.12%; viability, T/C [29]: 0.21%; viability, T/C [30]: 1.35%; viability, T/C [31]: 1.7%; viability, T/C [32]: 0.26%; viability, T/C [33]: 0.21%; viability, T/C [34]: 0.2%; viability, T/C [35]: 0.28%"
CCN1CCN(Cc2ccc(Nc3ncc(F)c(-c4cc(F)c5nc(C)n(C(C)C)c5c4)n3)nc2)CC1 + C=CC(=O)N1CCN(c2nc(=O)n(-c3c(C)ccnc3C(C)C)c3nc(-c4c(O)cccc4F)c(F)cc23)C(C)C1,5.23,< 3.16,< 3.16,< 3.16,32.7,30.6,30.7,35.1,28.2,31.1,34.9,40,30.2,33.5,39,38.3,33.8,32.7,40.5,36.9,"IC50 [5]: < 3.16 nM; viability, T/C (second compound 0.1 µM, first compound 0.00316 µM): 56.9%; viability, T/C (second compound 0.1 µM, first compound 0.01 µM): 42.5%; viability, T/C (second compound 0.316 µM, first compound 0.00316 µM): 49.6%; viability, T/C (second compound 0.316 µM, first compound 0.01 µM): 40.5%; viability, T/C (second compound 1 µM, first compound 0.00316 µM): 48.3%; viability, T/C (second compound 1 µM, first compound 0.01 µM): 42%; viability, T/C (second compound 3.16 µM, first compound 0.00316 µM): 49.2%; viability, T/C (second compound 3.16 µM, first compound 0.01 µM): 39%; viability, T/C (second compound 10 µM, first compound 0.00316 µM): 41.9%; viability, T/C (second compound 10 µM, first compound 0.01 µM): 32.5%; viability, T/C [30]: 35.6%; viability, T/C [31]: 36.2%; viability, T/C [32]: 39.3%; viability, T/C [33]: 2.69%"
COc1cc2nccc(Oc3ccc(NC(=O)C4(C(=O)Nc5ccc(F)cc5)CC4)cc3)c2cc1OC,–,–,–,–,–,–,–,–,–,–,–,–,–,–,–,–,–,–,–,–,"viability, T/C (compound 0.0316 µM): 95.8% [middle of 5 runs]; viability, T/C (compound 0.1 µM): 94.9% [middle of 5 runs]; viability, T/C (compound 0.316 µM): 97.2% [middle of 5 runs]"
CC1(C)CCC(CN2CCN(c3ccc(C(=O)NS(=O)(=O)c4ccc(NCC5CCOCC5)c([N+](=O)[O-])c4)c(Oc4cnc5[nH]ccc5c4)c3)CC2)=C(c2ccc(Cl)cc2)C1 + CC1OCC2(CCN(c3cnc(Sc4ccnc(N)c4Cl)c(N)n3)CC2)C1N,1920,1120,< 31.6,< 31.6,64.6,67.3,73.2,66,53.7,48.5,51.1,56.4,42,42.7,42,41,32.6,33.3,30.8,25.9,"IC50 [5]: < 31.6 nM; viability, T/C [10]: 37.6%; viability, T/C [11]: 3.49%; viability, T/C [16]: 28.6%; viability, T/C [17]: 1.66%; viability, T/C [22]: 25%; viability, T/C [23]: 0.76%; viability, T/C [28]: 15.6%; viability, T/C [29]: 0.57%; viability, T/C [30]: 23.6%; viability, T/C [31]: 28.6%; viability, T/C [32]: 23.7%; viability, T/C [33]: 25%; viability, T/C [34]: 15.4%; viability, T/C [35]: 0.27%"
CN(C)C/C=C/C(=O)Nc1cc2c(Nc3ccc(F)c(Cl)c3)ncnc2cc1O[C@H]1CCOC1,–,–,–,–,–,–,–,–,–,–,–,–,–,–,–,–,–,–,–,–,"viability, T/C (compound 0.000316 µM): 99.1% [middle of 5 runs]; viability, T/C (compound 0.001 µM): 97% [middle of 5 runs]; viability, T/C (compound 0.00316 µM): 95.1% [middle of 5 runs]; viability, T/C (compound 0.01 µM): 104% [middle of 5 runs]; viability, T/C (compound 0.0316 µM): 100% [middle of 5 runs]; viability, T/C (compound 0.1 µM): 90.8% [middle of 5 runs]; IC50 (curve of compound): > 100 nM"
Cn1nccc1Nc1nccc(-c2cc3c(s2)C(C)(C)N(CCN2CCOCC2)C3=O)n1 + C=CC(=O)N1CCN(c2nc(OCC3CCCN3C)nc3c2CCN(c2cccc4cccc(C)c24)C3)CC1CC#N,227,< 31.6,< 31.6,< 31.6,60.2,62.1,45.5,33,42.9,45,37.6,33.6,39.6,31.1,29.7,33.3,0.15,0.17,0.15,0.16,"IC50 (curve of first compound, second compound 0.0316 µM): 422 nM; viability, T/C (second compound 0.0316 µM, first compound 0.0316 µM): 62.5%; viability, T/C (second compound 0.0316 µM, first compound 0.1 µM): 54.6%; viability, T/C (second compound 0.0316 µM, first compound 0.316 µM): 55.6%; viability, T/C (second compound 0.0316 µM, first compound 1 µM): 25.2%; viability, T/C (second compound 0.0316 µM, first compound 3.16 µM): 40.4%; viability, T/C (second compound 0.0316 µM, first compound 10 µM): 34.7%; viability, T/C [10]: 36.2%; viability, T/C [11]: 28.8%; viability, T/C [16]: 31.1%; viability, T/C [17]: 27.6%; viability, T/C [22]: 30.3%; viability, T/C [23]: 21.3%; viability, T/C [28]: 0.54%; viability, T/C [29]: 0.21%"
CC(C)NCC(C(=O)N1CCN(c2ncnc3c2C(C)CC3O)CC1)c1ccc(Cl)cc1 (stereo not given) + CC1OCC2(CCN(c3cnc(Sc4ccnc(N)c4Cl)c(N)n3)CC2)C1N,105,< 31.6,< 31.6,< 31.6,59.3,52.5,32.5,22.5,43.1,33,16.4,13.8,29.1,20.7,14.5,8.77,20.9,15.3,9.04,6.16,"IC50 [5]: < 31.6 nM; viability, T/C [10]: 16.5%; viability, T/C [11]: 11.9%; viability, T/C [16]: 10.8%; viability, T/C [17]: 7.02%; viability, T/C [22]: 7.91%; viability, T/C [23]: 5.17%; viability, T/C [28]: 5.92%; viability, T/C [29]: 4.91%; viability, T/C [30]: 16.4%; viability, T/C [31]: 12.2%; viability, T/C [32]: 9.27%; viability, T/C [33]: 6.34%; viability, T/C [34]: 4.8%; viability, T/C [35]: 3.45%"
